# Reference: US20250090615A1, “MULTIVITAMIN FOR AUXILIARY REGULATION OF BLOOD PRESSURE AND PREPARATION METHOD AND APPLICATION THEREOF” (Changde Jizhi Biological Technology Co., Ltd, priority 2023, published 2025)
# Test system: spontaneously hypertensive rats
# Assay: Effects on spontaneously hypertensive rats (noninvasive tail artery systolic blood pressure)
# Assay type: in vivo, rat
# Settings: 2-month-old spontaneously hypertensive rats; intragastric once a day for 6 weeks; amlodipine besylate tablets 0.05 mg/kg, multivitamin 600 mg/kg; measured 3 hours after last administration; mean ± spread, n=10
# Excerpt: Experimental animals are 2-month-old spontaneously hypertensive rats.
# Experimental methods are as follows. Spontaneous hypertensive rats are taken and randomly divided into a model group and respective experimental groups. Specifically, in experimental group 1, amlodipine besylate tablets are given by intragastric administration at a dose of 0.05 milligrams per kilogram (mg/kg) once a day for 6 weeks. In experimental groups 2-9, amlodipine besylate tablets are given by intragastric administration at a dose of 0.05 mg/kg, and the products of the embodiments or comparative embodiments are given by intragastric administration at a dose of 600 mg/kg once a day for 6 weeks. The model group is given the same volume of distilled water once a day for 6 weeks. At 3 hours after the last administration, systolic blood pressure data are obtained on the computer through the software of noninvasive tail artery blood pressure measuring instrument. Blood pressure of each rat is measured 6-10 times each time, and the mean value is taken as the measured systolic blood pressure of the rat.
smiles,measurement,value
"CCOC(=O)C1=C(COCCN)NC(C)=C(C(=O)OC)C1c1ccccc1Cl (stereo not shown) [Experimental group 1, amlodipine besylate]",6 weeks 3 h systolic blood pressure,160.29 ± 2.46
